Source: patent publication US10568930B2, “Agents and methods of treatment” (Hexima Limited, priority 2014, dated 2020)

Legend:
Type in all cases: cell-based
Conditions in all cases: for Expected inhibition: Ee, Limpel formula; for Synergy: Io-Ee
[1] = tested on: Trichophyton interdigitale; assay: Antifungal growth assay, defensin plus proteinase inhibitor
Method: (§1) Spores are isolated from sporulating fungus spp. growing on yeast extract peptone dextrose agar (Candida albicans, Cryptococcus gattii—1.5×10^6) or ½ strength Sabouraud dextrose agar (Trichophyton interdigitale, Microsporum fulvum—5×10^4). Spores are removed from the plates by the addition of ½ strength potato dextrose broth (PDB). Spore concentrations are measured using a haemocytometer.
(§2) Antifungal assays were conducted in 96 well microtitre plates. Wells were loaded with 10 μL of filter sterilized (0.22 μm syringe filter, Millipore) defensin (10× stock for each final concentration) or water, 10 μL, of filter sterilized (0.22 μm syringe filter, Millipore) proteinase inhibitor or chemical fungicide (10× stock for each final concentration) or water and 80 μL of 5×10^3 spores/mL in ½ strength PDB. The plates were incubated at 24° C. Fungal growth was assayed by measuring optical density at 595 nm (A595) using a microtitre plate reader (SpectraMax Pro M2; Molecular Devices. Growth was allowed to proceed until the optical density (OD) of the fungus in the absence of any test defensin reached an OD of 0.2. Each test was performed in duplicate.
(§3) Synergy is classified as the difference between the observed % fungal growth inhibition caused by the combination of a defensin and a proteinase inhibitor (or a defensin and a chemical fungicide) (Io value) and the expected % fungal growth inhibition of the defensin and the proteinase inhibitor (or the defensin and the chemical fungicide) based on the sum of the % fungal growth inhibition of the defensin and the proteinase inhibitor (or the defensin and the chemical fungicide) on their own (Ee value calculated according to the Limpel formula used by Richer et al. (1987) supra). The difference, Io-Ee, is the synergy value. A synergy value up to 15 means no significant synergy; 15-30 is a low level of synergy; 30-60 is a medium level of synergy; and >60 is a high level of synergy. Synergy calculations are presented in Tables 2 through 7 wherein, as indicated above, Ee is the expected effect from the additive response according to Limpel's formula expressed as percent inhibition and To is the percent inhibition observed. Synergy occurs when To values are higher than Ee values.

Candida albicans [2] = assay: as above; design: key to Synergy: Io-Ee in % inhibition points; >60 high synergy, <15 none
Method: as §1, §2, §3

Candida albicans [3] = assay: Antifungal growth assay, defensin plus chemical fungicide; design: key to Synergy: Io-Ee in % inhibition points; <15 none, 15-30 low, 30-60 medium, >60 high
Method: Chemical fungicides were sourced commercially and were prepared as 10× stock solutions in H2O (caspofungin and fenpropimorph) or as a 100× stock in methanol (terbinafine).
as §1, §2, §3

[4] = defensin 0.5 μM + BPTI (0.625 μM)
[5] = defensin 0.5 μM + HvCPI6 (2.5 μM)
[6] = defensin 0.5 μM + SlCys9N (2.5 μM)
[7] = defensin 4 μM + BPTI (0.625 μM)
[8] = defensin 4 μM + HyCPI6 (2.5 μM)
[9] = defensin 2.5 μM + Caspofungin (4 ng/ml)
[10] = defensin 2 μM + BPTI (0.625 μM)
[11] = defensin 2 μM + HyCPI6 (2.5 μM)
[12] = defensin 2 μM + SlCys9N (2.5 μM)
[13] = permeabilizing defensin 1 μM + Caspofungin (2 ng/ml)
[14] = defensin 2 μM + Fenpropimorph (2 ug/ml)
[15] = defensin 4 μM + SlCys9N (2.5 μM)
[16] = defensin 1 μM + HyCPI6 (2.5 μM)
[17] = defensin 1 μM + SlCys9N (2.5 μM)
[18] = defensin 1 μM + BPTI (0.625 μM)
[19] = defensin 1 μM + Fenpropimorph (2 ug/ml)
[20] = non-permeabilizing defensin 1 μM + Caspofungin (2 ng/ml)

**Q.** Which results are given for “HXL001: Class I permeabilizing plant defensin, mature protein SEQ ID NO:26 (RHCLSQSHRFKGLCMSSNNCANVCQTENFPGGECKAEGATRKCFCKKIC; HXL001 Zea mays)”?
**A.** Observed inhibition [1, 4]: 67.4%; Expected inhibition [1, 4]: 36.9%; Synergy [1, 4]: 30.5; Observed inhibition [1, 5]: 84.7%; Expected inhibition [1, 5]: 32.5%; Synergy [1, 5]: 52.2; Observed inhibition [1, 6]: 70.2%; Expected inhibition [1, 6]: 16.8%; Synergy [1, 6]: 53.4; Observed inhibition (Candida albicans [2]; [7]): 72.6%; Expected inhibition (Candida albicans [2]; [7]): 2.6%; Synergy (Candida albicans [2]; [7]): 70.1; Observed inhibition (Candida albicans [2]; [8]): 84.2%; Expected inhibition (Candida albicans [2]; [8]): 59.2%; Synergy (Candida albicans [2]; [8]): 25.0; Observed inhibition (Candida albicans [2]; defensin 4 μM + SlCys9N (2 μM)): 85.0%; Expected inhibition (Candida albicans [2]; defensin 4 μM + SlCys9N (2 μM)): 68.1%; Synergy (Candida albicans [2]; defensin 4 μM + SlCys9N (2 μM)): 16.9; Observed inhibition (Candida albicans [3]; [9]): 73.4%; Expected inhibition (Candida albicans [3]; [9]): 11.7%; Synergy (Candida albicans [3]; [9]): 61.7

**Q.** “HXL002: Class I permeabilizing plant defensin, mature protein SEQ ID NO:27 (RDCLSQSHKFKGACLSSSNCAAVCRTENFPDGECHTHNFARKCFCKRAC; HXL002 Triticum aestivum)” was tested. Which Observed inhibition (Candida albicans [3]; [9]) did it give?
**A.** Its Observed inhibition is 40.8%.

**Q.** And the Expected inhibition (Candida albicans [3]; [9])?
**A.** Its Expected inhibition is 6.1%.

**Q.** What about the Synergy (Candida albicans [3]; [9]) of the same substance?
**A.** Its Synergy is 34.7.

**Q.** How did the Observed inhibition (Candida albicans [2]; [10]) turn out when “HXL004: Class I permeabilizing plant defensin, mature protein SEQ ID NO:28 (RTCESQSHRFKGLCFSRSNCASVCHTEGFNGGHCRGFRRRCFCTRHC; HXL004 Nicotiana benthamiana)” was run?
**A.** The Observed inhibition was 91.2%.

**Q.** And the Expected inhibition (Candida albicans [2]; [10])?
**A.** The Expected inhibition was 9.6%.

**Q.** What about the Synergy (Candida albicans [2]; [10]) of the same substance?
**A.** Its Synergy is 81.6.

**Q.** And the Observed inhibition (Candida albicans [2]; [11])?
**A.** Its Observed inhibition is 93.5%.

**Q.** And the Expected inhibition (Candida albicans [2]; [11])?
**A.** The Expected inhibition was 63.6%.

**Q.** What about the Synergy (Candida albicans [2]; [11]) of the same substance?
**A.** Its Synergy is 29.9.

**Q.** And the Observed inhibition (Candida albicans [2]; [12])?
**A.** Its Observed inhibition is 81.8%.

**Q.** What about the Expected inhibition (Candida albicans [2]; [12]) of the same substance?
**A.** The Expected inhibition was 55.2%.

**Q.** What about the Synergy (Candida albicans [2]; [12]) of the same substance?
**A.** The Synergy was 26.6.

**Q.** What about the Observed inhibition (Candida albicans [3]; [13]) of the same substance?
**A.** Its Observed inhibition is 92.3%.

**Q.** And the Expected inhibition (Candida albicans [3]; [13])?
**A.** Its Expected inhibition is 14.0%.

**Q.** And the Synergy (Candida albicans [3]; [13])?
**A.** The Synergy was 78.3.

**Q.** Which results are given for “HXL008: Class I permeabilizing plant defensin, mature protein SEQ ID NO:30 (KVCTKPSKFFKGLCGTDGACTTACRKEGLHSGYCQLKGFLNSVCVCRKHC; HXL008 Picramnia pentandra)”?
**A.** Observed inhibition (Candida albicans [2]; [10]): 100.0%; Expected inhibition (Candida albicans [2]; [10]): 0.0%; Synergy (Candida albicans [2]; [10]): 100.0; Observed inhibition (Candida albicans [2]; [11]): 63.8%; Expected inhibition (Candida albicans [2]; [11]): 14.8%; Synergy (Candida albicans [2]; [11]): 49.0; Observed inhibition (Candida albicans [2]; [12]): 98.9%; Expected inhibition (Candida albicans [2]; [12]): 30.2%; Synergy (Candida albicans [2]; [12]): 68.7; Observed inhibition (Candida albicans [3]; [14]): 87.3%; Expected inhibition (Candida albicans [3]; [14]): 46.7%; Synergy (Candida albicans [3]; [14]): 40.6

**Q.** Which Observed inhibition (Candida albicans [3]; [9]) does the source give for “HXL009: Class I permeabilizing plant defensin, mature protein SEQ ID NO:33 (TVCMRHNNFYHGPCMSNKDCANSCVQHNLGVGGYCRGKIPFNKECMCTFEC; HXL009)” here?
**A.** The Observed inhibition was 65.2%.

**Q.** What about the Expected inhibition (Candida albicans [3]; [9]) of the same substance?
**A.** Its Expected inhibition is 3.7%.

**Q.** What about the Synergy (Candida albicans [3]; [9]) of the same substance?
**A.** The Synergy was 61.5.

**Q.** Which Observed inhibition (Candida albicans [2]; [7]) does the source give for “HXL012: Class I permeabilizing plant defensin, mature protein SEQ ID NO:25 (RMCKAPSKLFRGMCGIRDSNCDSVCRAEGMAAGDCHGLRRRCICSRPC; HXL012 Amaranthus retroflexus)” here?
**A.** Its Observed inhibition is 89.7%.

**Q.** And the Expected inhibition (Candida albicans [2]; [7])?
**A.** Its Expected inhibition is 14.8%.

**Q.** What about the Synergy (Candida albicans [2]; [7]) of the same substance?
**A.** Its Synergy is 74.9.

**Q.** What about the Observed inhibition (Candida albicans [2]; [8]) of the same substance?
**A.** The Observed inhibition was 100.0%.

**Q.** And the Expected inhibition (Candida albicans [2]; [8])?
**A.** Its Expected inhibition is 12.3%.

**Q.** What about the Synergy (Candida albicans [2]; [8]) of the same substance?
**A.** The Synergy was 87.7.

**Q.** And the Observed inhibition (Candida albicans [2]; [15])?
**A.** Its Observed inhibition is 97.3%.

**Q.** And the Expected inhibition (Candida albicans [2]; [15])?
**A.** Its Expected inhibition is 34.5%.

**Q.** And the Synergy (Candida albicans [2]; [15])?
**A.** The Synergy was 62.8.

**Q.** And the Observed inhibition (Candida albicans [3]; [9])?
**A.** Its Observed inhibition is 51.2%.

**Q.** What about the Expected inhibition (Candida albicans [3]; [9]) of the same substance?
**A.** Its Expected inhibition is 0%.

**Q.** What about the Synergy (Candida albicans [3]; [9]) of the same substance?
**A.** Its Synergy is 51.2.

**Q.** “HXL013: Class I permeabilizing plant defensin, mature protein SEQ ID NO:31 (KDCLTRRHGFQGRCLFDRQCAHVCRSDGFIGGQCRGPLRKCFCSRPC; HXL013 glycine max)” was tested. Which Observed inhibition (Candida albicans [2]; [16]) did it give?
**A.** The Observed inhibition was 100.0%.

**Q.** And the Expected inhibition (Candida albicans [2]; [16])?
**A.** The Expected inhibition was 10.1%.

**Q.** And the Synergy (Candida albicans [2]; [16])?
**A.** Its Synergy is 89.9.

**Q.** What about the Observed inhibition (Candida albicans [2]; [17]) of the same substance?
**A.** Its Observed inhibition is 100.0%.

**Q.** And the Expected inhibition (Candida albicans [2]; [17])?
**A.** The Expected inhibition was 13.8%.

**Q.** What about the Synergy (Candida albicans [2]; [17]) of the same substance?
**A.** Its Synergy is 86.2.

**Q.** What about the Observed inhibition (Candida albicans [3]; [13]) of the same substance?
**A.** The Observed inhibition was 90.8%.

**Q.** And the Expected inhibition (Candida albicans [3]; [13])?
**A.** Its Expected inhibition is 4.3%.

**Q.** What about the Synergy (Candida albicans [3]; [13]) of the same substance?
**A.** The Synergy was 86.5.

**Q.** How did the Observed inhibition (Candida albicans [2]; [18]) turn out when “HXL015: Class I permeabilizing plant defensin, mature protein SEQ ID NO:32 (RHCLSQSHRFKGMCVSSNNCANVCRTESFPDGECKSHGLERKCFCKKVC; HXL015 Oryza sativa)” was run?
**A.** Its Observed inhibition is 100.0%.

**Q.** And the Expected inhibition (Candida albicans [2]; [18])?
**A.** Its Expected inhibition is 28.1%.

**Q.** What about the Synergy (Candida albicans [2]; [18]) of the same substance?
**A.** The Synergy was 71.9.

**Q.** And the Observed inhibition (Candida albicans [2]; [16])?
**A.** The Observed inhibition was 100.0%.

**Q.** And the Expected inhibition (Candida albicans [2]; [16])?
**A.** The Expected inhibition was 0.0%.

**Q.** What about the Synergy (Candida albicans [2]; [16]) of the same substance?
**A.** The Synergy was 100.0.

**Q.** And the Observed inhibition (Candida albicans [2]; [17])?
**A.** Its Observed inhibition is 94.7%.

**Q.** What about the Expected inhibition (Candida albicans [2]; [17]) of the same substance?
**A.** Its Expected inhibition is 0.0%.

**Q.** And the Synergy (Candida albicans [2]; [17])?
**A.** Its Synergy is 94.7.

**Q.** And the Observed inhibition (Candida albicans [3]; [19])?
**A.** The Observed inhibition was 71.8%.

**Q.** What about the Expected inhibition (Candida albicans [3]; [19]) of the same substance?
**A.** Its Expected inhibition is 19%.

**Q.** And the Synergy (Candida albicans [3]; [19])?
**A.** The Synergy was 52.8.

**Q.** For “RsAFP2: non-permeabilizing defensin used as comparison (QKLCQRPSGTWSGVCGNNNACKNQCIRLEKARHGSCNYVFPAHKCICYFPC; UniProt P30230 30-80, looked up) [reference compound]”, which Observed inhibition (Candida albicans [3]; [20]) is on record?
**A.** Its Observed inhibition is 19.0%.

**Q.** And the Expected inhibition (Candida albicans [3]; [20])?
**A.** The Expected inhibition was 1.7%.

**Q.** What about the Synergy (Candida albicans [3]; [20]) of the same substance?
**A.** The Synergy was 17.3.
